Test results published in ChEMBL document CHEMBL6153020, “Identification of Isoliensinine as a Ferroptosis Suppressor with Iron-Chelating Activity” (J Nat Prod, 2025).
Active and inactive are the calls of the source. The rule behind the calls is not given here.

Experiments:
HT-1080 [1] = test: Anti-ferroptosis activity against RSL3-induced ferroptosis in human HT-1080 cells assessed as protection against cell death at 10 uM incubated for 24 hrs by SYTOX Green staining based light microscopy analysis; type: functional
HT-1080 [2] = test: Anti-ferroptosis activity against IKE-induced ferroptosis in human HT-1080 cells assessed as increase in cell viability at 10 uM incubated for 24 hrs by SYTOX Green staining based light microscopy analysis; type: functional
[3] = Antioxidant activity assessed as ABTS radical scavenging activity at 5 uM by ABTS method; type: functional
HT-1080 [4] = test: Anti-ferroptosis activity against RSL3-induced ferroptosis in human HT-1080 cells assessed as reduction in ROS level by DCFH-DA dye based analysis; type: functional, cell-based
HT-1080 [5] = test: Anti-ferroptosis activity against RSL3-induced ferroptosis in human HT-1080 cells assessed as restoration of lipid peroxidation level by BODIPY 581/591 C11 dye based flow cytometry analysis; type: functional, cell-based
HT-1080 [6] = test: Anti-ferroptosis activity against FeCl3/8HQ-induced ferroptosis in human HT-1080 cells assessed as increase in cell viability at 1 to 50 uM incubated for 24 hrs by cell counting kit 8 method; type: functional, cell-based; settings: dose 1-50 µM
HT-1080 [7] = test: Anti-ferroptosis activity against RSL3-induced ferroptosis in human HT-1080 cells assessed as reduction in MDA level; type: functional, cell-based
HT-1080 [8] = test: Anti-ferroptosis activity against IKE-induced ferroptosis in human HT-1080 cells assessed as inhibition of lipid peroxidation level at 5 uM by BODIPY 581/591 C11 dye based flow cytometry analysis; type: functional, cell-based
HT-1080 [9] = test: Anti-ferroptosis activity against IKE-induced ferroptosis in human HT-1080 cells assessed as effect on GSH level at 5 uM; type: functional, cell-based
HT-1080 [10] = test: Anti-ferroptosis activity against IKE-induced ferroptosis in human HT-1080 cells assessed as effect on GSH/GSSG ratio at 5 uM; type: functional, cell-based
HT-1080 [11] = test: Anti-ferroptosis activity against RSL3-induced ferroptosis in human HT-1080 cells assessed as reduction in GPX4 level at 5 uM by Western blot analysis; type: functional, cell-based
HT-1080 [12] = test: Anti-ferroptosis activity against FINO2-induced ferroptosis in human HT-1080 cells assessed as increase in cell viability at 1 to 50 uM incubated for 24 hrs by cell counting kit 8 method; type: functional, cell-based; settings: dose 1-50 µM
HT-1080 [13] = test: Anti-ferroptosis activity against RSL3-induced ferroptosis in human HT-1080 cells assessed as increase in cell viability at 10 uM incubated overnight in the presence of ML385 by cell counting kit 8 method; type: functional, cell-based
HT-1080 [14] = test: Anti-ferroptosis activity against IKE-induced ferroptosis in human HT-1080 cells assessed as increase in cell viability at 1 to 50 uM incubated for 24 hrs by cell counting kit 8 method; type: functional, cell-based; settings: dose 1-50 µM
HT-1080 [15] = test: Anti-ferroptosis activity against RSL3-induced ferroptosis in human HT-1080 cells assessed as increase in cell viability at 50 uM incubated for 24 hrs by cell counting kit 8 method; type: functional, cell-based
HT-1080 [16] = test: Anti-ferroptosis activity against FINO2-induced ferroptosis in human HT-1080 cells assessed as decrease in cell death at 5 uM incubated for 24 hrs by SYTOX Green staining based light microscopy analysis; type: functional
HT-1080 [17] = test: Anti-ferroptosis activity against RSL3-induced ferroptosis in human HT-1080 cells assessed as upregulation of PTGS2 mRNA expression by qPCR analysis; type: functional, cell-based
HT-1080 [18] = test: Anti-ferroptosis activity against RSL3-induced ferroptosis in human HT-1080 cells assessed as increase in cell viability at 10 uM incubated for 24 hrs by CCK-8 assay; type: functional, cell-based
HT-1080 [19] = test: Anti-ferroptosis activity against RSL3-induced ferroptosis in human HT-1080 cells assessed as increase in cell viability at 5 uM incubated for 24 hrs by cell counting kit 8 method; type: functional, cell-based
HT-1080 [20] = test: Anti-ferroptosis activity against FINO2-induced ferroptosis in human HT-1080 cells assessed as increase in cell viability at 20 uM incubated overnight by cell counting kit 8 method; type: functional, cell-based
HT-1080 [21] = test: Anti-ferroptosis activity against FeSO4/8HQ-induced ferroptosis in human HT-1080 cells assessed as reduction in total iron level at 5 uM by live-cell fluorescent imaging; type: functional, cell-based
Mus musculus [22] = test: Protection against acute iron overload in male C57BL/6 mouse model assessed as reduction in hepatic FTH level at 10 mg/kg, ip pretreated with iron sulfate for 8 hrs followed by compound administered for 30 min by Western blot analysis; type: functional, organism-based
HT-1080 [23] = test: Anti-ferroptosis activity against FeSO4/8HQ-induced ferroptosis in human HT-1080 cells assessed as reduction in MDA level at 5 uM; type: functional, cell-based
Mus musculus [24] = test: Anti-ferroptotic activity against acute iron overload in male C57BL/6 mouse model assessed as reduction in MDA level in liver at 10 mg/kg, ip pretreated with iron sulfate for 8 hrs followed by compound administered for 30 min; type: functional, organism-based
[25] = Toxicity in C57BL/6 mouse assessed as change in CK level in serum at 10 mg/kg, ip pretreated with iron sulfate for 8 hrs followed by compound administered for 30 min by automatic biochemical analyzer; type: organism-based; settings: in vivo, 30 h
Mus musculus [26] = test: Protection against acute iron overload in male C57BL/6 mouse model assessed as reduction in hepatic FTL level at 10 mg/kg, ip pretreated with iron sulfate for 8 hrs followed by compound administered for 30 min by Western blot analysis; type: functional, organism-based
HT-1080 [27] = test: Anti-ferroptosis activity against FINO2-induced ferroptosis in human HT-1080 cells assessed as reduction in Fe2+ oxidation level at 5 uM by colorimetric method; type: functional, cell-based
HT-1080 [28] = test: Anti-ferroptosis activity against FeSO4/8HQ-induced ferroptosis in human HT-1080 cells assessed as increase in cell viability at 1 to 10 uM incubated for 24 hrs by cell counting kit 8 method; type: functional, cell-based; settings: dose 1-10 µM
Mus musculus [29] = test: Protection against acute iron overload in male C57BL/6 mouse model assessed as reduction in liver iron content at 10 mg/kg, ip pretreated with iron sulfate for 8 hrs followed by compound administered for 30 min by Perls Prussian blue staining; type: functional, organism-based
HT-1080 [30] = test: Anti-ferroptosis activity against FINO2-induced ferroptosis in human HT-1080 cells assessed as reduction in MDA level at 5 uM; type: functional, cell-based
[31] = Toxicity in C57BL/6 mouse assessed as change in AST level in serum at 10 mg/kg, ip pretreated with iron sulfate for 8 hrs followed by compound administered for 30 min by automatic biochemical analyzer; type: organism-based; settings: in vivo, 30 h
HT-1080 [32] = test: Anti-ferroptosis activity against FINO2-induced ferroptosis in human HT-1080 cells assessed as reduction in total iron level at 5 uM by live-cell fluorescent imaging; type: functional, cell-based
HT-1080 [33] = test: Anti-ferroptosis activity against FeSO4/8HQ-induced ferroptosis in human HT-1080 cells assessed as reduction in Fe2+ level at 5 uM by FerroOrange staining based live-cell fluorescent imaging; type: functional
HT-1080 [34] = test: Anti-ferroptosis activity against MnCl2-induced ferroptosis in human HT-1080 cells assessed as increase in cell viability at 5 uM incubated for 24 hrs by cell counting kit 8 method; type: functional, cell-based
HT-1080 [35] = test: Anti-ferroptosis activity against FeCl3/8HQ-induced ferroptosis in human HT-1080 cells assessed as increase in cell viability at 5 uM incubated for 24 hrs by cell counting kit 8 method; type: functional, cell-based
HT-1080 [36] = test: Anti-ferroptosis activity against FeCl3/8HQ-induced ferroptosis in human HT-1080 cells assessed as reduction in total iron level at 5 uM by live-cell fluorescent imaging; type: functional, cell-based
Mus musculus [37] = test: Protection against acute iron overload in male C57BL/6 mouse model assessed as reduction in spleen iron content at 10 mg/kg, ip pretreated with iron sulfate for 8 hrs followed by compound administered for 30 min by Perls Prussian blue staining; type: functional, organism-based
HT-1080 [38] = test: Anti-ferroptosis activity against FeCl3/8HQ-induced ferroptosis in human HT-1080 cells assessed as reduction in MDA level at 5 uM; type: functional, cell-based
[39] = Toxicity in C57BL/6 mouse assessed as change in LDH level in serum at 10 mg/kg, ip pretreated with iron sulfate for 8 hrs followed by compound administered for 30 min by automatic biochemical analyzer; type: organism-based; settings: in vivo, 30 h
HT-1080 [40] = test: Anti-ferroptosis activity against FINO2-induced ferroptosis in human HT-1080 cells assessed as upregulation of PTGS2 mRNA level at 5 uM by qPCR analysis; type: functional, cell-based
Mus musculus [41] = test: Protection against male acute iron overload C57BL/6 mouse model assessed as reduction in hepatic iron content at 10 mg/kg, ip pretreated with iron sulfate for 8 hrs followed by compound administered for 30 min; type: functional, organism-based
[42] = Toxicity in C57BL/6 mouse assessed as change in ALT level in serum at 10 mg/kg, ip pretreated with iron sulfate for 8 hrs followed by compound administered for 30 min by automatic biochemical analyzer; type: organism-based; settings: in vivo, 30 h
Mus musculus [43] = test: Anti-ferroptotic activity against acute iron overload in male C57BL/6 mouse model assessed as reduction in […] mRNA expression level in liver at 10 mg/kg, ip pretreated with iron sulfate for 8 hrs followed by compound administered for 30 min by qPCR analysis; type: functional, organism-based
HT-1080 [44] = test: Anti-ferroptosis activity against ZnCl2-induced ferroptosis in human HT-1080 cells assessed as increase in cell viability at 5 uM incubated for 24 hrs by cell counting kit 8 method; type: functional, cell-based

C/C=C/c1ccc(OC(C)=O)c(OC)c1
Activity (HT-1080 [1]): Active
Activity (HT-1080 [2]): Active
Activity [3]: inactive
Activity (HT-1080 [4]): Active
Activity (HT-1080 [5]): Active
Activity (HT-1080 [6]): inactive
Activity (HT-1080 [7]): Active
Activity (HT-1080 [8]): Active
Activity (HT-1080 [9]): Active
Activity (HT-1080 [10]): Active
Activity (HT-1080 [11]): inactive
Activity (HT-1080 [12]): inactive
Activity (HT-1080 [13]): Active
Activity (HT-1080 [14]): Active
Activity (HT-1080 [15]): Active
Activity (HT-1080 [16]): inactive
Activity (HT-1080 [17]): Active
Activity (HT-1080 [18]): Active; Strong Protection

C=CC(C)(C)c1cc(/C=C/C(=O)c2ccc(O)cc2)c(OC)cc1O
Activity (HT-1080 [1]): Active
Activity (HT-1080 [2]): Active
Activity [3]: inactive
Activity (HT-1080 [4]): Active
Activity (HT-1080 [5]): Active
Activity (HT-1080 [6]): inactive
Activity (HT-1080 [7]): Active
Activity (HT-1080 [8]): Active
Activity (HT-1080 [9]): Active
Activity (HT-1080 [10]): Active
Activity (HT-1080 [11]): inactive
Activity (HT-1080 [12]): inactive
Activity (HT-1080 [19]): Active
Activity (HT-1080 [13]): Active
Activity (HT-1080 [14]): Active
Activity (HT-1080 [16]): inactive
Activity (HT-1080 [17]): Active
Activity (HT-1080 [18]): Active; Strong Protection

COc1cc2c(cc1OC)[C@@H](Cc1ccc(O)c(Oc3cc4c(cc3OC)CCN(C)[C@@H]4Cc3ccc(O)cc3)c1)N(C)CC2
Activity (HT-1080 [20]): inactive

COc1ccc(C[C@@H]2c3cc(Oc4cc(C[C@H]5c6cc(OC)c(OC)cc6CCN5C)ccc4O)c(OC)cc3CCN2C)cc1
Activity (HT-1080 [20]): inactive

COc1ccc(C[C@@H]2c3cc(Oc4cc(C[C@@H]5c6cc(O)c(OC)cc6CCN5C)ccc4O)c(OC)cc3CCN2C)cc1 [ISOLIENSININE]
Activity (HT-1080 [21]): Active
Activity (Mus musculus [22]): Active
Activity (HT-1080 [1]): Active
Activity (HT-1080 [23]): Active
Activity (HT-1080 [2]): Active
Activity (Mus musculus [24]): Active
Activity [25]: Non-toxic
Activity [3]: inactive
Activity (HT-1080 [4]): Active
Activity (Mus musculus [26]): Active
Activity (HT-1080 [27]): Active
Activity (HT-1080 [28]): Active
Activity (HT-1080 [5]): Active
Activity (Mus musculus [29]): Active
Activity (HT-1080 [30]): Active
Activity (HT-1080 [6]): Active
Activity [31]: Non-toxic
Activity (HT-1080 [7]): Active
Activity (HT-1080 [8]): Active
Activity (HT-1080 [9]): Active
Activity (HT-1080 [32]): Active
Activity (HT-1080 [10]): Active
Activity (HT-1080 [33]): Active
Activity (HT-1080 [11]): inactive
Activity (HT-1080 [34]): inactive
Activity (HT-1080 [35]): inactive
Activity (HT-1080 [12]): Active
Activity (HT-1080 [19]): Active
Activity (HT-1080 [36]): Active
Activity (Mus musculus [37]): Active
Activity (HT-1080 [13]): Active
Activity (HT-1080 [38]): Active
Activity [39]: Non-toxic
Activity (HT-1080 [40]): Active
Activity (HT-1080 [14]): Active
Activity (Mus musculus [41]): Active
Activity [42]: Non-toxic
Activity (HT-1080 [16]): Active
Activity (HT-1080 [17]): Active
Activity (HT-1080 [18]): Active; Strong Protection
Activity (Mus musculus [43]): Active
Activity (HT-1080 [44]): inactive
